Data on 3 compounds can be found in ChEMBL document CHEMBL2396546, “Australian marine sponge alkaloids as a new class of glycine-gated chloride channel receptor modulator” (Bioorg Med Chem, 2013).

In general, IC50 refers to the concentration at which inhibition is half-maximal. A word on the inhibition: it is the relative decrease from the control value, in per cent.

Where only a bound is given, the exact number is not on record here.

Common to all, as to assay type: cell-based
For test [1], the target named is T1, Glycine receptor subunit alpha-1 (Homo sapiens, UniProt P23415).
T1 sequence (P23415 whole entry): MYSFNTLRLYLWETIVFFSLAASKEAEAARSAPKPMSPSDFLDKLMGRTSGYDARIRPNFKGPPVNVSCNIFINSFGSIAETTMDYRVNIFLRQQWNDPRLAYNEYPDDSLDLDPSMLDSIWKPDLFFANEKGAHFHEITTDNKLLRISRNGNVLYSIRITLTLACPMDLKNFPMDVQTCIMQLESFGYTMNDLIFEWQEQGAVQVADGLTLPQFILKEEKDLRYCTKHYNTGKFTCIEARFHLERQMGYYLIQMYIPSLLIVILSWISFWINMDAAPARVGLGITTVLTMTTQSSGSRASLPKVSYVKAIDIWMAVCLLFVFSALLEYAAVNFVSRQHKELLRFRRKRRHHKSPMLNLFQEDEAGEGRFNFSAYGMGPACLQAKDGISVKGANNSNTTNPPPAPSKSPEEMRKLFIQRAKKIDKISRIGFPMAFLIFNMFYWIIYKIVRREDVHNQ
Put plainly: Modulation of recombinant GlyR-alpha1 (unknown origin) expressed in HEK293 cells assessed as inhibition of glycine-induced current by automated planar patch-clamp automated electrophysiology assay. (In general: The patch-clamp technique gives a direct electrical read-out from membranes.)

In test [2] the target is T2, Glycine receptor subunit alpha-3 (Homo sapiens, UniProt O75311).
T2 sequence (O75311 whole entry): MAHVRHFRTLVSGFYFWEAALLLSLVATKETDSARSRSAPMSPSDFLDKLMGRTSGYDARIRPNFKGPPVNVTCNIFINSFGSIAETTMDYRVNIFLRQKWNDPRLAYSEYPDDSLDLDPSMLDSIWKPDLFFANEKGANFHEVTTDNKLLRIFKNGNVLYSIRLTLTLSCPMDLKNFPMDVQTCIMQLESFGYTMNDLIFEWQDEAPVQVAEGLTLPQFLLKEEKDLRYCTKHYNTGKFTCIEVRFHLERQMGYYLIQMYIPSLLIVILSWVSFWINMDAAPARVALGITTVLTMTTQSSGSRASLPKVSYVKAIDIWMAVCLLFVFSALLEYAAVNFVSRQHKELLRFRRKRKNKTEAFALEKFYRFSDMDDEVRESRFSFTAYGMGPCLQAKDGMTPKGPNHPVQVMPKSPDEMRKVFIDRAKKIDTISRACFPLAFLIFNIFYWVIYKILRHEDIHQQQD
Put plainly: Modulation of recombinant GlyR-alpha3 (unknown origin) expressed in HEK293 cells assessed as inhibition of glycine-induced current by automated planar patch-clamp automated electrophysiology assay.

For test [3], the target named is T3, Glycine receptor subunit alpha-1 (Homo sapiens) (UniProt P23415).
T3 sequence (whole entry): T1 sequence (P23415 whole entry)
The test is described as follows: Modulation of recombinant GlyR-alpha1 (unknown origin) expressed in HEK293 cells assessed as inhibition of glycine-induced current at 1 uM by automated planar patch-clamp automated electrophysiology assay.

As to `CN1C(=O)/C(=C\c2c[nH]c3ccccc23)N(C)C1=O`, the IC50 in test [1] was more than 200 µM; in test [2], 67 µM.

Regarding `CN1C(=O)NC(=O)/C1=C\c1c[nH]c2ccccc12`, the IC50 in test [1] was 8.8 µM; in test [2], 33.9 µM.

For the compound `CN1C(=N)N(C)[C@@]2(C1=O)c1[nH]c3ccccc3c1C[C@@]1(C(=O)N(C)C(=N)N1C)[C@@H]2c1c[nH]c2ccccc12`, the inhibition in test [3] stood at 126%. Besides, the 50% inhibitory concentration (IC50) in test [1] is 25.9 µM; in test [2], more than 300 µM.
